Assay results as given in patent US20250114389A1, “NUCLEOSIDES AND NUCLEOTIDES ANALOGS AS ANTIVIRAL AGENTS” (Emory University, priority 2021, published 2025).
Read-outs that look alike come from different tables or passages of the source.

Assays:
Format in all cases: cell-based
[1] = system: SARS-CoV2 Lineage A (Wa); assay: Antiviral activity against SARS-CoV2 Lineage A (Wa) in Calu3
[2] = system: SARS-CoV2 variant Alpha; assay: microbe, parasite or virus in culture
[3] = system: SARS-CoV2 variant Gamma; assay: microbe, parasite or virus in culture
[4] = system: SARS-CoV2 variant Delta; assay: microbe, parasite or virus in culture
[5] = system: SARS-CoV2 variant Beta; assay: microbe, parasite or virus in culture
[6] = system: SARS-CoV2 variant Gamma; assay: microbe, parasite or virus in culture; remark: listed apart in the source
[7] = system: SARS-CoV2 variant Delta; assay: microbe, parasite or virus in culture; remark: listed apart in the source
[8] = system: SARS-CoV2 variant Alpha; assay: microbe, parasite or virus in culture; remark: listed apart in the source
[9] = system: SARS-CoV2 variant Beta; assay: microbe, parasite or virus in culture; remark: listed apart in the source
[10] = system: SARS-CoV2 Lineage A (Wa); assay: Antiviral activity against SARS-CoV2 Lineage A (Wa) in Vero
[11] = system: SARS-CoV2 Lineage A (Eng); assay: Antiviral activity against SARS-CoV2 Lineage A (Eng) in Calu3
[12] = Severe acute respiratory syndrome coronavirus 2, Calu-3, read-out: Antiviral Activity Against SARS-CoV2 Variants in Calu3, first value column
[13] = Severe acute respiratory syndrome coronavirus 2, Vero, read-out: Antiviral Activity Against SARS-CoV2 Variants in Vero, first value column
[14] = Severe acute respiratory syndrome coronavirus 2, Calu-3, Calu3, read-out: Antiviral Activity Against SARS-CoV2 Variants in Calu3, first value column

Row | SMILES | Antiviral Activity Against SARS-CoV2 Variants in Calu3, second value column [1] [µM] | Antiviral Activity Against SARS-CoV2 Variants in Vero [2] [µM] | Antiviral Activity Against SARS-CoV2 Variants in Vero [3] [µM] | Antiviral Activity Against SARS-CoV2 Variants in Calu3, second value column [4] [µM] | Antiviral Activity Against SARS-CoV2 Variants in Calu3, second value column [5] [µM] | Antiviral Activity Against SARS-CoV2 Variants in Vero [7] [µM] | Antiviral Activity Against SARS-CoV2 Variants in Calu3, second value column [8] [µM] | Antiviral Activity Against SARS-CoV2 Variants in Vero [9] [µM] | Antiviral Activity Against SARS-CoV2 Variants in Vero [10] [µM] | Antiviral Activity Against SARS-CoV2 Variants in Calu3, second value column [11] [µM] | also measured
1 | N#C[C@@]1(n2ccc(N)nc2=O)O[C@H](CO)[C@@H](O)[C@H]1O [Compound A, (2R,3R,4S,5R)-2-(4-amino-2-oxopyrimidin-1(2H)-yl)-3,4-dihydroxy-5-(hydroxymethyl)-tetrahydrofuran-2-carbonitrile] | 4.5 | 1.2 | 1.0 | 0.1 | 1.2 | 0.3 | 0.4 | 1.4 | 0.4 | 3.6 | EC50 [1, 12]: 1700 nM; EC50 [2, 13]: 800 nM; EC50 [3, 13]: 800 nM; EC50 [4, 14]: 40 nM; EC50 [5, 14]: 300 nM; Antiviral Activity Against SARS-CoV2 Variants in Calu3, second value column [6]: 1.2 µM; EC50 [6, 14]: 1100 nM; EC50 [7, 13]: 200 nM; EC50 [8, 14]: 100 nM; EC50 [9, 13]: 300 nM; EC50 ([10]; Severe acute respiratory syndrome coronavirus 2, read-out: Antiviral Activity Against SARS-CoV2 Variants in Vero, first value column): 200 nM; EC50 [11, 12]: 1800 nM
2 | CCC(CC)COC(=O)[C@H](C)N[P@](=O)(OC[C@H]1O[C@@](C#N)(c2ccc3c(N)ncnn23)[C@H](O)[C@@H]1O)Oc1ccccc1 [Remdesivir, reference compound] | 0.3 | 0.6 | 2.2 | 0.3 | 0.4 | 2.1 | 0.4 | 1.6 | 2.9 | 2.3 | –
